According to patent US5726302A, “Water soluble adenosine kinase inhibitors” (Gensia Inc., priority 1995, dated 1998):
Where two headings read alike, the source gives them in different places.

Assays:
[1] = molecular target: adenosine kinase; settings: read-out: Ki, inhibition of adenosine kinase; cited from earlier work
[2] = tested on: rat cardiomyocytes; settings: inhibition of adenosine deaminase alone; cited from earlier work
[3] = tested on: isolated guinea pig hearts; settings: in the absence of ADA inhibition; cited from earlier work
[4] = tested on: mice; settings: cited from earlier work
[5] = tested on: isolated rat hearts; settings: alone, cited from earlier work
[6] = tested on: ischemic cerebral injury; settings: Phillis et al.; cited from earlier work
[7] = tested on: anesthetized rats; settings: cited from earlier work
[8] = tested on: dog hearts; settings: in vivo; cited from earlier work
[9] = tested on: male SA rats; assay: Analgesic activity, hot plate; assay type: in vivo; settings: Rattus norvegicus, ip
[10] = tested on: male SA rats; assay: Anticonvulsant activity, maximal electroshock (MES) model; assay type: in vivo; settings: Rattus norvegicus, 1 h; po; one hour after dosing, fasted
Protocol: The anticonvulsant activity of the tested compounds was evaluated in male SA rats (100-150 g, Simonsen) using the maximal electroshock (MES) model described in Swinyard et al., Antiepileptic Drugs, 3d Ed. at 85-102 (Levy, et al., eds.), N.Y.: Raven Press (1989). The rats were maintained on a 12/12 light/dark cycle in temperature controlled facilities with free access to food and water. For p.o. administration, the animals are fasted overnight, prior to the experiment. One hour prior to seizure testing, the animals were injected interperitoneally (ip) or orally (per os, […]) with one of various doses of test compound dissolved in DMSO or PEG 400.
This endpoint was expressed as the percentage of animals in which the response was inhibited.

[11] = tested on: Rats; assay: Anti-inflammatory activity, carrageenan paw; assay type: in vivo, rat; settings: 10 mg/kg, swelling after 3 hours
Protocol: Carrageenan (Type λ) was suspended in sterile PBS at 1% (w/v), autoclaved for 30 minutes, and stored at room temperature. Rats were pretreated with vehicle or AK inhibitor (10 mg/kg) by oral gavage or i.p. administration and the volume of the left hind paw was measured using a water displacement plethysmometer (Stoelting Co., Wood Dale, Ill.). One hour after oral treatment or 30 minutes after i.p. treatment, the rats were briefly anesthetized, and 0.1 ml of the carrageenan solution was injected subcutaneously into the planar surface of the left hind paw. The ensuing paw swelling was measured by plethysmometry after 3 hours. The paw volume in millileters was subtracted from the pre-injection paw volume. Data are presented as the percent inhibition of paw swelling in AK inhibitor treated animals, compared to vehicle treated control animals.

[12] = Water solubility; assay type: physicochemical; settings: deionized water (DI)
Protocol: The sample was sonicated for a period of up to 20 minutes. If a solution was not obtained, further solvent was added and the process was repeated until a clear solution was obtained, and the results were recorded. Solutions used were 50 mM potassium biphthalate (pH 4); 100 mM glycine (pH 9); 25 mM sodium carbonate and 25 mM sodium bicarbonate (pH 10); or deionized water (DI).

[13] = tested on: male SA rats; assay: Analgesic activity, tail flick; assay type: in vivo; settings: Rattus norvegicus, ip
[14] = tested on: mice; assay: HPLC analysis of plasma for metabolism in mice after oral administration; assay type: in vivo; settings: 10 mg/kg
[15] = molecular target: partially purified pig heart adenosine kinase (Sus scrofa, UniProt A0A5G2R0F5); assay: biochemical
Protocol: Adenosine kinase activity was measured essentially as described by Yamada et al Biochim. Biophys. Acta 660, 36-43 (1988) with a few minor modifications. Assay mixtures contained 50 mM TRIS-maleate buffer, pH 7.0, 0.1% BSA, 1 mM ATP 1 mM MgCl2, 0.5 μM [U-^14 C] adenosine (400-600 mCi/mmol) and varying duplicate concentrations of inhibitor. The reactions were initiated by addition of approximately 0.1 μU partially purified pig heart adenosine kinase, where one unit is defined as that amount of enzyme required to phosphorylate 1 μmol adenosine per minute. The reactions were incubated for 20 minutes at 37° C. The assay was quenched upon spotting 30 μL aliquots onto 2 cm^2 pieces of Whatman DE81 anion exchange paper. The paper squares were washed for 3 minutes in 6 L distilled/deionized water to remove the unreacted adenosine. […] The amount of ^14 C-AMP was quantified by scintillation counting.

[16] = ip, 30 minutes before carrageenan
[17] = po, one hour before carrageenan

partially purified pig heart adenosine kinase, sequence (A0A5G2R0F5 1-362): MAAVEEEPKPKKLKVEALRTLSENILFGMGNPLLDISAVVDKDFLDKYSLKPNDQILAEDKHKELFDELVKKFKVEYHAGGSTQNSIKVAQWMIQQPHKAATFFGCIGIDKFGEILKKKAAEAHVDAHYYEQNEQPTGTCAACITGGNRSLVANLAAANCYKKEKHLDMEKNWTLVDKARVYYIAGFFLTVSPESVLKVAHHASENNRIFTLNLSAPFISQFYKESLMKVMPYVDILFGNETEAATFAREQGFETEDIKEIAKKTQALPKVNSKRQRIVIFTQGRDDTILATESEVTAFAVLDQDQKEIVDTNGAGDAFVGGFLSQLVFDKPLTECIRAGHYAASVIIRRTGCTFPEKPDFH

For `OC[C@H]1O[C@@H](n2cnc3c(NCCCCCCCCCCCCNc4ncnc5c4ncn5[C@@H]4O[C@H](CO)[C@@H](O)[C@H]4O)ncnc32)[C@H](O)[C@@H]1O` [1,12-bis(adenosin-N^6-yl)dodecane], the Ki [1] is given as less than 0.1 µM.

In the case of `OC[C@H]1O[C@@H](n2cnc3c2N=CNC[C@H]3O)C[C@@H]1O` [2'-deoxycoformycin], the “effect on adenosine release from the cells” value [2] is listed as “no effect on adenosine release”.

In the case of `NC[C@H]1O[C@@H](n2cnc3c(N)ncnc32)[C@H](O)[C@@H]1O` [5'-amino-5'-deoxyadenosine], the “increase of adenosine release” value [3] is given as “not apparent in the absence of ADA inhibition” and the Ki [1] is given as less than 0.1 µM.

For `Nc1ncnc2c1c(I)cn2[C@@H]1O[C@H](CO)[C@@H](O)[C@H]1O` [5-iodotubercidin], the “general flaccidity (skeletal muscle relaxation)” value [4] is given as “pronounced general flaccidity”, the hypothermia [4] is given as “hypothermia” and the spontaneous locomotor activity [4] is given as “much-reduced spontaneous locomotor activity”. The “increase in perfusate adenosine concentration” value ([5]; hypoxic, anoxic or ischemic conditions) was “no increase in perfusate adenosine concentration”, the “increase in perfusate adenosine concentration” value ([5]; normoxic conditions) was “no increase in perfusate adenosine concentration” and the “protection against ischemic cerebral injury” value [6] was “apparently does not protect against ischemic cerebral injury”. The blood pressure [7] was “decrease blood pressure”, the heart rate [7] was “decrease blood pressure and heart rate” and the “effects in dog hearts subjected to ischemia and reperfusion” value [8] was “inconsistent effects”.

With `C[C@H]1O[C@@H](n2cc(-c3ccccc3)c3c(Nc4ccc(CN(C)C)cc4)ncnc32)[C@H](O)[C@@H]1O` [Compound 1, 4-N(N,N-Dimethylaminomethylphenyl)amino-5-phenyl-7-(5-deoxy-β-D-ribofuranosyl)pyrrolo[2,,3-d]pyrimidine] the ED50 [9] was 15.2 mg/kg, the ED50 [10] was greater than 20 mg/kg and the “Carrageenan Paw (% inhibition) of paw swelling” value (shortened to “Carrageenan Paw (% inhibition)”) [11, 16] was 26.0%. The “Carrageenan Paw (% inhibition)” value [11, 17] was 19.2%, the solubility [12] was greater than 5000 µg/mL and the ED50 [13] was 15 mg/kg.

In the case of `C[C@H]1O[C@@H](n2cc(I)c3c(NCCc4ccccn4)ncnc32)[C@H](O)[C@@H]1O` [Compound 43, 4-N-(2-(2-pyridylethyl)amino)-5-iodo-7-(5-deoxy-1-β-D-ribofuranosyl)pyrrolo[2,3-d]pyrimidine], the “metabolism in mice shown by HPLC analysis of plasma” value [14] is reported as “generate a potent AK inhibitor”, the “Carrageenan Paw (% inhibition)” value [11, 16] is reported as 58.6% and the “Carrageenan Paw (% inhibition)” value [11, 17] is reported as 69.7%. The “AK inhibition in vitro” value ([15]; in vitro) was “weak AK inhibitor in vitro” and the IC50 ([15]; pig heart adenosine kinase, 0.5 μM adenosine, pH 7.0, 20 minutes at 37° C, read-out: AK Inhibition (IC50)) was 10 µM.
